Usually LD50 stands for the dose at which mortality reaches 50%. The low end stands for greater toxicity, the high end for lower toxicity.

Experimental findings from patent US4927919A, “Chartreusin derivatives and salts thereof” (Ishihara Sangyo Kaisha, Ltd., priority 1985, dated 1990) are described below.

For series [1], the system named is B-16 melanoma. In words: Antitumor activity against B-16 melanoma (i.v. drug). The class given is in vivo, BDF1 mice. Particulars: 60-day observation. The protocol: BDF1 mice were implanted intraperitoneally with a B-16 melanoma cell suspension in an amount of 0.5 ml/mouse, and each drug to be tested was administered intravenously on the first, fifth and ninth days after the implantion. […] The T/C (%) was calculated in the same manner as aforementioned (1--1).
The B-16 melanoma cell suspension was prepared as follows. Tumor fragment, maintained by subcutaneous passages in C57BL/6 mice, were aseptically removed and passed through a sterile stainless-steel mesh. Thus obtained tumor was dispersed in a culture medium or physiological saline in an amount of 9 ml per 1 g of tumor.

The test system of series [2] is P-388 leukemia cells. The series can be described thus: Antitumor activity against P-388 leukemia cells (i.p. implanted, i.v. drug). The class given is in vivo, BDF1 mice. Conditions: i.v., 30-day observation; for response vs control in vivo at 20 mg/kg / response vs control in vivo at 40 mg/kg / response vs control in vivo at 80 mg/kg / response vs control in vivo at 60 mg/kg / response vs control in vivo at 30 mg/kg: Mus musculus, P388, iv, 720 h, read-out: T/C of MST; for response vs control in vivo at 20 mg/kg: dose b: 20 mg/kg/d × 3 (days 1, 5, 9); for response vs control in vivo at 40 mg/kg: dose c: 40 mg/kg/d × 3 (days 1, 5, 9); for T/C of MST / response vs control in vivo at 80 mg/kg: dose f: 80 mg/kg/d × 3 (days 1, 5, 9); for response vs control in vivo at 60 mg/kg: dose e: 60 mg/kg/d × 3 (days 1, 5, 9); for response vs control in vivo at 30 mg/kg: dose j: 30 mg/kg/d × 3 (days 1, 5, 9). The protocol:
BDF1 mice were implanted intraperitoneally with P-388 leukemia cells at a rate of 1×10^6 cells/mouse, and each drug to be tested was administered intravenously on the first, fifth and ninth days, or on the first and fifth days after the implantation. […] The T/C (%) was calculated based on the following equation: [formula]
The drugs tested were as follows: solutions prepared by dissolving each of compound Nos. 34, 36 and 43 to 46 in physiological saline; suspension or solutions prepared by dissolving each of compound Nos. 35, 38 and 49 to 55 in dimethylacetamide, followed by adding thereto a small amount of a surface active agent (e.g., Tween-80) and then physiological saline; and suspension or solutions prepared by mixing each of the other compounds and a small amount of a surface active agent (e.g., Tween-80), followed by adding thereto physiological saline.

A short description of series [3]: Acute toxicity (LD50, single intravenous administration). Also noted: species or system day mice. Conditions: mouse, in vivo, mice, single i.v. The text has this: In Table 15 are shown acute toxicity values (LD50, mg/kg) in day mice in the case of intravenously administering (once) each of the compounds of this invention in the form of preparations shown in the Preparation Examples shown in Table 16.

Series [4] has as its system L-1210 leukemia cells. In words: Antitumor activity against L-1210 leukemia cells (i.p. implanted, i.v. drug). In kind it is in vivo, BDF1 mice. Conditions: 30-day observation. The procedure:
BDF1 mice were implanted intraperitoneally with L-1210 leukemia cells at a rate of 1×10^5 cells/mouse, and each drug to be tested was administered intravenously on the first, fifth and ninth days after the implantation. […] The T/C (%) was calculated in the same manner as aforementioned (1--1).
The drugs tested were suspensions or solutions which prepared by mixing each compound to be tested and a small amount of a surface active agent (e.g., Tween-80), followed by adding thereto physiological saline.

The nature of series [5]: Intestinal excretion percentage of drugs. In kind it is in vivo. Particulars: DDY mice, i.v. 40 mg/kg-b.w., 2 hours. The protocol:
Each drug to be tested was administered to DDY mice intravenously at a dose of 40 mg/kg-b.w., and after 2 hours, contents of the small intestine and the large intestine and feces were extracted with a mixed solvent of chloroform and methanol. The extract was concentrated and each compound to be tested was quantitatively determined by high-speed liquid chromatography.
The drug tested was solution which prepared by dissolving the compound No. 17 in a small amount of dimethylacetoamide, followed by adding thereto a small amount of a surface active agent (e.g., Tween-80 ) and physiological saline.

For the compound `COC1C(O)C(C)OC(OC2C(Oc3cccc4c(OC(=O)c5cccn5C)c5c(=O)oc6ccc(C)c7c(=O)oc(c34)c5c67)OC(C)C3OC(c4ccccc4)OC32)C1O` (stereo not drawn) [Compound 2], the “T/C (%) of MST” value in series [1] (60 mg/kg × 3 (days 1, 5, 9)) turned out to be 141%. Further, in series [2], the response vs control in vivo at 20 mg/kg came to 189% and the response vs control in vivo at 40 mg/kg turned out to be 230%. In series [3] (Preparation Example 2), this compound returned an LD50 of at least 60 mg/kg. The “T/C (%) MST” value in series [4] (40 mg/kg × 3 (days 1, 5, 9)) is 243%.

On to `COC1C(O)C(C)OC(OC2C(Oc3cccc4c(OC(=O)c5ccco5)c5c(=O)oc6ccc(C)c7c(=O)oc(c34)c5c67)OC(C)C3OC(c4ccccc4)OC32)C1O` (stereo not drawn) [Compound 6], for which the “T/C (%) of MST” value in series [1] (60 mg/kg × 3 (days 1, 5, 9)) is recorded as 159%. Further, in series [2], the response vs control in vivo at 20 mg/kg was determined as 199% and the response vs control in vivo at 40 mg/kg is 217%. In series [3] (Preparation Example 2), this compound displayed an LD50 of at least 60 mg/kg.

`COC1C(O)C(C)OC(OC2C(Oc3cccc4c(OC(=O)c5cccs5)c5c(=O)oc6ccc(C)c7c(=O)oc(c34)c5c67)OC(C)C3OC(C)(C)OC32)C1O` (stereo not drawn) [Compound 10]: in series [2], the response vs control in vivo at 40 mg/kg came out at 162% and the “T/C of MST” value is reported as 207%. This compound also returned a median lethal dose (LD50) in series [3] (Preparation Example 4) of at least 80 mg/kg. Further, the “T/C (%) MST” value in series [4] (80 mg/kg × 3 (days 1, 5, 9)) is recorded as 140%.

On to `COC1C(O)C(C)OC(OC2C(Oc3cccc4c(OC(=O)c5cccs5)c5c(=O)oc6ccc(C)c7c(=O)oc(c34)c5c67)OC(C)C3OC(c4ccccc4)OC32)C1O` (stereo not drawn) [Compound 11, 6-O-(2-thienyl-carbonyl)-3',4'-O-benzylidene-chartreusin], for which the “T/C (%) of MST” value in series [1] (60 mg/kg × 3 (days 1, 5, 9)) amounted to 143%. Further, the response vs control in vivo at 20 mg/kg in series [2] was found to be 217%. In series [3] (Preparation Example 2), this compound showed an LD50 of at least 60 mg/kg.

On to `COC1C(O)C(C)OC(OC2C(Oc3cccc4c(OC(=O)c5c(-c6ccccc6)noc5C)c5c(=O)oc6ccc(C)c7c(=O)oc(c34)c5c67)OC(C)C3OC(c4ccccc4)OC32)C1O` (stereo not drawn) [Compound 14, 6-O-{4-(5-methyl-3-phenylisoxazolyl)-carbonyl}-3',4'-O-benzylidene-chartreusin], for which the “T/C (%) of MST” value in series [1] (60 mg/kg × 3 (days 1, 5, 9)) was determined as 143%. Besides, in series [2], the response vs control in vivo at 20 mg/kg was 207% and the response vs control in vivo at 40 mg/kg came out at 250%. Further, the LD50 in series [3] (Preparation Example 1) is at least 60 mg/kg. Moreover, the “T/C (%) MST” value in series [4] (40 mg/kg × 3 (days 1, 5, 9)) turned out to be 208%.

As to `COC1C(O)C(C)OC(OC2C(Oc3cccc4c(OC(=O)c5cc6ccccc6[nH]5)c5c(=O)oc6ccc(C)c7c(=O)oc(c34)c5c67)OC(C)C3OC(c4ccccc4)OC32)C1O` (stereo not drawn) [Compound 17, 6-O-(2-indolyl-carbonyl)-3',4'-O-benzylidene-chartreusin], the “Intestinal excretion percentage [(total amount of excretion/dose) × 100]” value in series [5] is 5.4%. Further, the “T/C (%) of MST” value in series [1] (60 mg/kg × 3 (days 1, 5, 9)) was found to be 141%. Besides, in series [2], the response vs control in vivo at 20 mg/kg was found to be 199% and the response vs control in vivo at 40 mg/kg came out at 255%. The same compound yielded an LD50 in series [3] (Preparation Example 1) of at least 60 mg/kg. For the same compound, the “T/C (%) MST” value in series [4] (40 mg/kg × 3 (days 1, 5, 9)) is 181%.

On to `CCn1cc(C(=O)Oc2c3cccc(OC4OC(C)C5OC(c6ccccc6)OC5C4OC4OC(C)C(O)C(OC)C4O)c3c3oc(=O)c4c(C)ccc5oc(=O)c2c3c54)c(=O)c2ccc(C)nc21` (stereo not drawn) [Compound 33, 6-O-{3-(1,4-dihydro-1-ethyl-7-methyl-4-oxo-1,8-naphthyridinyl)-carbonyl}-3',4'-O-benzylidene-chartreusin], for which, in series [1] (40 mg/kg × 3 (days 1, 5, 9)), the “T/C (%) of MST” value is given as 142%. Further, in series [2], the response vs control in vivo at 20 mg/kg worked out at 218% and the response vs control in vivo at 40 mg/kg was 274%. Moreover, the LD50 in series [3] (Preparation Example 1) is at least 40 mg/kg.

With `COC1C(N)C(C)OC(OC2C(Oc3cccc4c(OC(=O)C(C)CNC(=O)C(F)(F)F)c5c(=O)oc6ccc(C)c7c(=O)oc(c34)c5c67)OC(C)C3OC(C)(C)OC32)C1O` (stereo not drawn) [Compound 56], in series [2], the response vs control in vivo at 80 mg/kg worked out at 138%. In series [3] (Preparation Example 1), this compound gave a 50% lethal dose (LD50) of at least 80 mg/kg.

Turning to `COC1C(O)C(C)OC(OC2C(Oc3cccc4c(OC(=O)c5cccs5)c5c(=O)oc6ccc(C)c7c(=O)oc(c34)c5c67)OC(C)C3OC(C)(C)OC32)C1O` (stereo not drawn) [Compound 62], the “T/C of MST” value in series [2] was 131%. This compound also had an LD50 in series [3] (Preparation Example 2) of at least 80 mg/kg.

For the compound `COC1C(O)C(C)OC(OC2C(Oc3cccc4c(OC(=O)c5cc6cc(OCc7ccccc7)ccc6[nH]5)c5c(=O)oc6ccc(C)c7c(=O)oc(c34)c5c67)OC(C)C3OC(c4ccccc4)OC32)C1O` (stereo not drawn) [Compound 101], in series [2], the response vs control in vivo at 60 mg/kg came out at 191%. The same compound had an LD50 in series [3] (Preparation Example 2) of at least 60 mg/kg.

For the compound `COC1C(O)C(C)OC(OC2C(Oc3cccc4c(OC(=O)c5cc6cc(O)ccc6[nH]5)c5c(=O)oc6ccc(C)c7c(=O)oc(c34)c5c67)OC(C)C3OC(c4ccccc4)OC32)C1O` (stereo not drawn) [Compound 102], in series [2], the response vs control in vivo at 60 mg/kg came to 256% and the response vs control in vivo at 30 mg/kg is 233%. Further, the LD50 in series [3] (Preparation Example 1) was at least 60 mg/kg.

Regarding `COC1C(O)C(C)OC(OC2C(Oc3cccc4c(OC(=O)c5ocnc5C)c5c(=O)oc6ccc(C)c7c(=O)oc(c34)c5c67)OC(C)C3OC(c4ccccc4)OC32)C1O` (stereo not drawn) [Compound 103], in series [2], the response vs control in vivo at 60 mg/kg turned out to be 236% and the response vs control in vivo at 30 mg/kg was determined as 210%. Further, the LD50 in series [3] (Preparation Example 2) was at least 60 mg/kg.

As to `COC1C(O)C(C)OC(OC2C(Oc3cccc4c(OC(=O)CCCc5c[nH]c6ccccc56)c5c(=O)oc6ccc(C)c7c(=O)oc(c34)c5c67)OC(C)C3OC(c4ccccc4)OC32)C1O` (stereo not drawn) [Compound 104], in series [2], the response vs control in vivo at 20 mg/kg was determined as 185%, the response vs control in vivo at 60 mg/kg amounted to 256% and the response vs control in vivo at 30 mg/kg stood at 219%. The LD50 in series [3] (Preparation Example 2) is at least 60 mg/kg.

`CCn1cc(C(=O)Oc2c3cccc(OC4OC(C)C5OC(c6ccccc6)OC5C4OC4OC(C)C(O)C(OC)C4O)c3c3oc(=O)c4c(C)ccc5oc(=O)c2c3c54)c(=O)c2cnc(N3CCCC3)nc21` (stereo not drawn) [Compound 105]: in series [2], the response vs control in vivo at 60 mg/kg amounted to 256% and the response vs control in vivo at 30 mg/kg stood at 165%. In series [3] (Preparation Example 2), this compound yielded an LD50 of at least 60 mg/kg.

As to `CCn1cc(C(=O)Oc2c3cccc(OC4OC(C)C5OC(c6ccccc6)OC5C4OC4OC(C)C(O)C(OC)C4O)c3c3oc(=O)c4c(C)ccc5oc(=O)c2c3c54)c(=O)c2cnc(N3CCNCC3)nc21` (stereo not drawn) [Compound 106], in series [2], the response vs control in vivo at 60 mg/kg is 244% and the response vs control in vivo at 30 mg/kg was 188%. In series [3] (Preparation Example 1), this compound displayed an LD50 of at least 60 mg/kg.

As to `CCn1cc(C(=O)Oc2c3cccc(OC4OC(C)C5OC(C)(C)OC5C4OC4OC(C)C(O)C(OC)C4O)c3c3oc(=O)c4c(C)ccc5oc(=O)c2c3c54)c(=O)c2ccc(C)nc21` (stereo not drawn) [Compound 107], the response vs control in vivo at 80 mg/kg in series [2] amounted to 134%. The same compound came in with an LD50 in series [3] (Preparation Example 4) of at least 80 mg/kg.

In the case of `CCn1cc(C(=O)Oc2c3cccc(OC4OC(C)C5OC(c6ccccc6)OC5C4OC4OC(C)C(O)C(OC)C4O)c3c3oc(=O)c4c(C)ccc5oc(=O)c2c3c54)c(=O)c2ccc(C)nc21` (stereo not drawn) [Compound 108], in series [2], the response vs control in vivo at 80 mg/kg amounted to 158%. The LD50 in series [3] (Preparation Example 4) was at least 80 mg/kg.
